# Measurements from patent US20260078130A1, “NAMPT MODULATORS, PREPARATIONS, AND USES THEREOF” (SIRONAX LTD., priority 2022, published 2026).
# Where two headings read alike, the source gives them in different places.
# Assays:
# [1] = target: T1, human enzyme NAMPT (full length) (Homo sapiens, UniProt P43490); assay: NMN fluorescence biochemical assay (stimulation of NMN synthesis by NAMPT); details: for EC50: concentration giving half-maximal activation, read-out: Enzymatic EC50; for Enzymatic Emax: fold change of maximal activation compared to DMSO
# T1 construct: human enzyme NAMPT (full length)
# Method in brief: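 Full-length human NAMPT (100 nM) was preincubated 15 min at 37 °C with compound in 50 mM Tris-HCl pH 7.5, 10 mM MgCl2, 2 mM DTT, then reacted 1 h at 37 °C with 50 μM NAM, 100 μM PRPP, 4 mM ATP (stated solution concentrations). NMN was derivatised with acetophenone/KOH then formic acid and read at Ex/Em 382/445 nm; EC50 and Emax (fold over DMSO) reported.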
# [2] = test system: endogenous NAMPT in U2OS cells; assay: Cellular NAD+ modulation assay (NAD/NADH-Glo, U2OS cells); assay type: cell-based; details: Homo sapiens; for maximal fold induction: read-out: Cellular Emax
# Method: Certain compounds described herein were also assayed for their ability to stimulate the endogenous NAMPT in a native cellular environment in a cellular NAD^+ modulation assay. U2OS cells were grown in McCoy's 5A medium with 10% fetal bovine serum, in a humidified incubator with an atmosphere of 95% air and 5% CO2 at 37° C. The assays were initiated by plating 30 μL of U2OS cells in a culture medium with 10% fetal bovine serum, at a density of 3000 cells per well in a Corning® 384-well White/Clear Bottom Polystyrene Microplate. The plates were incubated in 37T incubators for a period of 16 hours. Test compounds with a series of concentrations in DMSO were added to the plates in a volume of 150 nL using Echo Liquid handlers. The plates are then incubated for 24 hours. The medium was removed from the wells, then 10 μL PBS was added to each well. To each well of cells in 10 μL of PBS, 10 μL of base solution with 1% DTAB was added. The plate was briefly mixed on a plate shaker to ensure homogeneity and cell lysis (5 mins). 10p L of 0.4N HCl was added per well. The plate was coved, and all samples were incubated for 15 minutes at 60° C. Then the plate was equilibrated for 10 minutes at room temperature. 10 μL of 0.5M Trizma® base was added to each well of acid-treated cells to neutralize the acid. Finally, 30 μL of NAD/NADH-Glo™ Detection Reagent was added. The plate was gently shaken to mix the samples. The plate was incubated for 40 minutes at room temperature. Luminescence was recorded using a luminometer. The potency measurements for the test compounds were quantified and represented as EC50 (concentration of a compound that gives half-maximal activation) and Emax (fold change of a compound's maximal activation compared to DMSO).
# [3] = NMN synthesis by purified human NAMPT (100 nM)
# [4] = 24 hours incubation with compound
# [5] = NMN fluorescence assay, purified human NAMPT 100 nM
# [6] = 24 hours incubation, cellular NAD+
# T1 sequence (P43490 whole entry): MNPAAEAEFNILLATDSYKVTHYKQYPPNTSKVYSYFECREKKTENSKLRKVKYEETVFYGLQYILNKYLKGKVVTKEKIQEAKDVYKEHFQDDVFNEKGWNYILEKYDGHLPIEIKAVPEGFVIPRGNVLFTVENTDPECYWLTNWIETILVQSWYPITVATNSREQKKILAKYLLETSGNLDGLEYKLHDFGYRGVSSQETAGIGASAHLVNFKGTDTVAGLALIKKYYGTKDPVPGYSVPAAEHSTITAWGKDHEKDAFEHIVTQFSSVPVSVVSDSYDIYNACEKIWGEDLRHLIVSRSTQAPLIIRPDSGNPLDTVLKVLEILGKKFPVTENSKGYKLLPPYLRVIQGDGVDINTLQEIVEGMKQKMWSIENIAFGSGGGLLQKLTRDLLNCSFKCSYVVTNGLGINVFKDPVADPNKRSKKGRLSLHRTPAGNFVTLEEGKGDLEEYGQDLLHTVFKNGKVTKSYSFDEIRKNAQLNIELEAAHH
SMILES,"EC50 [1, 3] [µM]",Enzymatic Emax [1],"EC50 [2, 4] [µM]","maximal fold induction [2, 4]","EC50 [1, 5] [µM]","EC50 [2, 6] [µM]","maximal fold induction [2, 6]"
"O=C1c2ccc(Br)cc2CN1Cc1ccc2[nH]c(=O)oc2c1 [Compound 299, 6-((5-bromo-1-oxoisoindolin-2-yl)methyl)benzo[d]oxazol-2(3H)-one]",0.5 to 5,C (2≥C),0.5 to 5,1.2 to 1.5,–,–,–
"CC1c2ccccc2C(=O)N1Cc1ccc(NC(=O)NCc2ccncc2)cc1 (centres unmarked) [Compound 291, 1-(4-((1-methyl-3-oxoisoindolin-2-yl)methyl)phenyl)-3-(pyridin-4-ylmethyl)urea]",< 0.5,C (2≥C),< 0.5,1.2 to 1.5,–,–,–
"COc1ccc(CN2C(=O)c3ccc(C4CC4)cc3C2Cc2c(Cl)cnn2C)cc1 (centres unmarked) [Compound 624, 3-((4-chloro-1-methyl-1H-pyrazol-5-yl)methyl)-5-cyclopropyl-2-(4-methoxybenzyl)isoindolin-1-one]",–,B (3≥B>2),–,–,0.5 to 5,0.5 to 5,1.2 to 1.5
"Cc1cccc2c1CN(Cc1ccc(O)cc1)C2=O [Compound 34, 2-(4-hydroxybenzyl)-4-methylisoindolin-1-one]",0.5 to 5,B (3≥B>2),0.5 to 5,1.2 to 1.5,–,–,–
"N#Cc1cccc(CC2c3ccccc3C(=O)N2Cc2ccc3[nH]c(=O)oc3c2)c1 (centres unmarked) [Compound 131, 3-((3-oxo-2-((2-oxo-2,3-dihydrobenzo[d]oxazol-6-yl)methyl)isoindolin-1-yl)methyl) benzonitrile]",0.5 to 5,A (A>3),0.5 to 5,> 1.5,–,–,–
"COc1cnc(CN2C(=O)c3ccccc3C2Cc2c(Cl)cnn2C)cc1F (centres unmarked) [Compound 555, 3-((4-chloro-1-methyl-1H-pyrazol-5-yl)methyl)-2-((4-fluoro-5-methoxypyridin-2-yl)methyl)isoindolin-1-one]",–,B (3≥B>2),–,–,≥ 5,< 0.5,> 1.5
"Cn1ncc(Cl)c1CC1c2ccc(F)cc2C(=O)N1Cc1ccc2[nH]nnc2c1 (centres unmarked) [Compound 340, 2-((1H-benzo[d][1,2,3]triazol-5-yl)methyl)-3-((4-chloro-1-methyl-1H-pyrazol-5-yl)methyl)-6-fluoroisoindolin-1-one]",–,A (A>3),–,–,< 0.5,< 0.5,> 1.5
"O=C1c2ccccc2C(Cc2nccs2)N1Cc1ccc2[nH]c(=O)oc2c1 (centres unmarked) [Compound 140, 6-((1-oxo-3-(thiazol-2-ylmethyl)isoindolin-2-yl)methyl) benzo[d]oxazol-2(3H)-one]",≥ 5,A (A>3),0.5 to 5,> 1.5,–,–,–
"O=C1c2ccccc2C(Cc2ccccc2Cl)N1Cc1ccc2[nH]c(=O)oc2c1 (centres unmarked) [Compound 157, 6-((1-(2-chlorobenzyl)-3-oxoisoindolin-2-yl)methyl)benzo[d]oxazol-2(3H)-one]",< 0.5,A (A>3),0.5 to 5,> 1.5,–,–,–
"O=C1c2ccccc2C(Cc2ncccc2F)N1Cc1ccc2[nH]c(=O)oc2c1 (centres unmarked) [Compound 214, 6-((1-((3-fluoropyridin-2-yl)methyl)-3-oxoisoindolin-2-yl)methyl)benzo[d]oxazol-2(3H)-one]",0.5 to 5,A (A>3),< 0.5,> 1.5,–,–,–
"O=C1c2ccccc2CN1Cc1ccc2[nH]c(=O)oc2c1 [Compound 33, 6-((1-oxoisoindolin-2-yl)methyl)benzo[d]oxazol-2(3H)-one]",≥ 5,A (A>3),5 to 50,1.2 to 1.5,–,–,–
"Cn1ncc(Cl)c1CC1c2ccccc2C(=O)N1C/C(F)=C/c1c[nH]nc1Cl (centres unmarked) [Compound 519, (Z)-3-((4-chloro-1-methyl-1H-pyrazol-5-yl)methyl)-2-(3-(3-chloro-1H-pyrazol-4-yl)-2-fluoroallyl)isoindolin-1-one]",–,B (3≥B>2),–,–,0.5 to 5,0.5 to 5,> 1.5
"CNC(=O)Nc1ccc(CN2Cc3ccccc3C2=O)cc1 [Compound 105, 1-methyl-3-(4-((1-oxoisoindolin-2-yl)methyl)phenyl)urea]",≥ 5,B (3≥B>2),0.5 to 5,> 1.5,–,–,–
"Cc1nc(O)sc1CN1C(=O)c2ccccc2C1Cc1c(Cl)cnn1C (centres unmarked) [Compound 635, 3-((4-chloro-1-methyl-1H-pyrazol-5-yl)methyl)-2-((2-hydroxy-4-methylthiazol-5-yl)methyl)isoindolin-1-one]",–,B (3≥B>2),–,–,0.5 to 5,0.5 to 5,> 1.5
"CC1c2cc(C3CC3)ccc2C(=O)N1Cc1ccc2[nH]c(=O)oc2c1 (centres unmarked) [Compound 125, 6-((5-cyclopropyl-3-methyl-1-oxoisoindolin-2-yl)methyl)benzo[d]oxazol-2(3H)-one]",≥ 5,A (A>3),0.5 to 5,> 1.5,–,–,–
"Cn1ncc(Cl)c1CC1c2cc(Br)ccc2C(=O)N1Cc1ccc2[nH]nnc2c1 (centres unmarked) [Compound 326, 2-((1H-benzo[d][1,2,3]triazol-5-yl)methyl)-5-bromo-3-((4-chloro-1-methyl-1H-pyrazol-5-yl)methyl)isoindolin-1-one]",–,A (A>3),–,–,< 0.5,< 0.5,> 1.5
"Cn1ncc(Cl)c1CC1c2cc(CC3COC3)ccc2C(=O)N1Cc1ccc2[nH]nnc2c1 (centres unmarked) [Compound 394, 2-((1H-benzo[d][1,2,3]triazol-5-yl)methyl)-3-((4-chloro-1-methyl-1H-pyrazol-5-yl)methyl)-5-(oxetan-3-ylmethyl)isoindolin-1-one]",–,B (3≥B>2),–,–,< 0.5,0.5 to 5,> 1.5
"Cn1ncc(Cl)c1CC1c2ccccc2C(=O)N1Cc1c[nH]c(=S)s1 (centres unmarked) [Compound 631, 3-((4-chloro-1-methyl-1H-pyrazol-5-yl)methyl)-2-((2-thioxo-2,3-dihydrothiazol-5-yl)methyl)isoindolin-1-one]",–,A (A>3),–,–,≥ 5,0.5 to 5,> 1.5
"Cn1nc(C2CNC2)c(Cl)c1CC1c2ccccc2C(=O)N1Cc1ccc2[nH]nnc2c1 (centres unmarked) [Compound 438, 2-((1H-benzo[d][1,2,3]triazol-5-yl)methyl)-3-((3-(azetidin-3-yl)-4-chloro-1-methyl-1H-pyrazol-5-yl)methyl)isoindolin-1-one]",–,B (3≥B>2),–,–,< 0.5,0.5 to 5,> 1.5
"Cn1ncc(Cl)c1CC1c2c(F)cccc2C(=O)N1CC1CC2(CNC(=O)O2)C1 (centres unmarked) [Compound 511, 2-((3-((4-chloro-1-methyl-1H-pyrazol-5-yl)methyl)-4-fluoro-1-oxoisoindolin-2-yl)methyl)-5-oxa-7-azaspiro[3.4]octan-6-one]",–,A (A>3),–,–,0.5 to 5,< 0.5,1.2 to 1.5
"Cc1nn(C)c(CC2c3ccccc3C(=O)N2CC2CC3(CNC(=O)O3)C2)c1Cl (centres unmarked) [Compound 527, 2-((1-((4-chloro-1,3-dimethyl-1H-pyrazol-5-yl)methyl)-3-oxoisoindolin-2-yl)methyl)-5-oxa-7-azaspiro[3.4]octan-6-one]",–,B (3≥B>2),–,–,< 0.5,< 0.5,> 1.5
"O=C1c2ccncc2CN1Cc1ccc(O)cc1 [Compound 43, 2-(4-hydroxybenzyl)-2,3-dihydro-1H-pyrrolo[3,4-c]pyridin-1-one]",≥ 5,A (A>3),5 to 50,1.2 to 1.5,–,–,–
"N#Cc1cncc(Cl)c1CC1c2ccccc2C(=O)N1Cc1ccc2[nH]nnc2c1 (centres unmarked) [Compound 278, 4-((2-((1H-benzo[d][1,2,3]triazol-5-yl)methyl)-3-oxoisoindolin-1-yl)methyl)-5-chloronicotinonitrile]",< 0.5,A (A>3),< 0.5,> 1.5,–,–,–
